Results on 1 compound are retold here after US5232932A, “Method for treatment of neurodegenerative diseases” (R. J. Reynolds Tobacco Company, priority 1992, dated 1993).

Assay [1] concerns the target high affinity nicotinic receptors. Kind of assay: Inhibition of L-[3H]nicotine binding to mouse brain membrane preparations. Details: species or system Mice (DBA strain). Particulars: mouse brain membranes, 2 hr at 4° C., Ki calculated from IC50 by method of Cheng et al. Here is the method:
Mice (DBA strain) were maintained on a 12 hour light/dark cycle and were allowed free access to water and food supplied by Wayne Lab Blox, Madison, WI. Animals used in the present studies were 60 to 90 days of age and weighed 20 to 25 g. Brain membrane preparations were obtained from pooled brain tissue of both males and females.
Mice were killed by cervical dislocation. Brains were removed and placed on an ice-cold platform. The cerebellum was removed and the remaining tissue was placed in 10 volumes (weight:volume) of ice-cold buffer (Krebs-RingersHEPES:NaCl, 118 mM; KCl, 4.8 mM; CaCl2, 2.5 mM; MgSO4, 1.2 mM; HEPES, 20 mM; pH to 7.5 with NaOH) and homogenized with a glass-Teflon tissue grinder. The resulting homogenate was centrifuged at 18000×g for 20 min. and the resulting pellet was resuspended in 20 volumes of water. […] Protein was determined by the method of Lowry, et al., J. Biol. Chem., Vol. 193, pp. 265-275 (1951), using bovine serum albumin as the standard.
The binding of L-[^3 H]nicotine was measured using a modification of the method of Romano, et al., Science, Vol. 210, pp. 647-650 (1980) as described previously by Marks, et al., Mol. Pharmacol., Vol. 30, pp. 427-436 (1986). The binding of L-[^3 H]nicotine was measured using a 2 hr. incubation at 4° C. […] Nonspecific binding was determined by inclusion of 10 μM nonradioactive nicotine in the incubations. […]

For assay [2], the system named is synaptosomes from the striatal area of rat brain. Kind of assay: [3H]-dopamine release from rat striatal synaptosomes. The class given is biochemical, Sprague-Dawley rats. Particulars: 0.2 ml of 10 μM solution of ligand; relative to equal concentration of (S)-(-)-nicotine. How it is done: Dopamine release was measured by preparing synaptosomes from the striatal area of rat brain obtained from Sprague-Dawley rats generally according to the procedures set forth by Nagy, et al., J. Neurochem., Vol. 43, pp. 1114-1123 (1984). Striata from 4 rats were homogenized in 2 ml of 0.32M sucrose buffered with 5 mM HEPES (pH 7.5), using a glass-teflon tissue grinder. The homogenate was diluted to 5 ml with additional homogenization solution and centrifuged at 1000×g for 10 min. This procedure was repeated on the new pellet and the resulting supernatant was centrifuged at 12,000×g for 20 min. […] Using this method, 30 to 90 percent of the dopamine was taken up into the synaptosomes, as determined by scintillation counting following filtration through glass fiber filters soaked with 0.5 percent polyethyleneimine. […] After the addition of a 0.2 ml of a 10 μM solution of ligand, the perfusate was collected into scintillation vials at 1 min. intervals and the dopamine released was quantified by scintillation counting. Peaks of radioactivity released above background were summed and the average basal release during that time was subtracted from the total. Release was expressed as a percentage of release obtained with an equal concentration of (S)-(-)-nicotine.

As a reminder, the Ki is the dissociation constant of the complex between target and ligand, obtained from inhibition or displacement. As for `CNCCCC(=O)c1cccnc1` [pseudooxynicotine], the Ki in assay [1] is 1700 nM. Also, the “Dopamine Release, percent release relative to (S)-(-)-nicotine” value in assay [2] stood at 45%.
